# Assay results: ChEMBL document CHEMBL4265948, “A cardiac glycoside HTF-1 isolated from Helleborus thibetanus Franch displays potent in vitro anti-cancer activity via caspase-9, MAPK and PI3K-Akt-mTOR pathways” (Eur J Med Chem, 2018)
# Activity calls are given as the source filed them. No cut-off for these calls is given here.
# What was measured:
# HeLa [1] = test: Induction of apoptosis in human HeLa cells assessed as late apoptotic cells at 200 nM after 24 hrs by Annexin-V-FITC/propidium iodide staining based flow cytometry (reference value: 11.1%); assay type: functional
# HeLa [2] = test: Induction of apoptosis in human HeLa cells assessed as early apoptotic cells at 200 nM after 24 hrs by Annexin-V-FITC/propidium iodide staining based flow cytometry (reference value: 3.08%); assay type: functional
# HeLa [3] = test: Induction of morphological changes in human HeLa cells assessed as cell membrane blebbing at 200 to 500 nM after 24 hrs by scanning electron microscopic analysis; assay type: functional, cell-based
# HeLa [4] = test: Induction of apoptosis in human HeLa cells assessed as viable cells at 100 nM after 24 hrs by Annexin-V-FITC/propidium iodide staining based flow cytometry (reference value: 85.8%); assay type: functional; conditions: read-out: Activity
# [5] = target: RAC-alpha serine/threonine-protein kinase (Homo sapiens) (UniProt P31749); test: Inhibition of AKT phosphorylation in human HeLa cells after 24 hrs by Western blot analysis; assay type: cell-based
# Sequence of RAC-alpha serine/threonine-protein kinase (Homo sapiens) (P31749 whole entry): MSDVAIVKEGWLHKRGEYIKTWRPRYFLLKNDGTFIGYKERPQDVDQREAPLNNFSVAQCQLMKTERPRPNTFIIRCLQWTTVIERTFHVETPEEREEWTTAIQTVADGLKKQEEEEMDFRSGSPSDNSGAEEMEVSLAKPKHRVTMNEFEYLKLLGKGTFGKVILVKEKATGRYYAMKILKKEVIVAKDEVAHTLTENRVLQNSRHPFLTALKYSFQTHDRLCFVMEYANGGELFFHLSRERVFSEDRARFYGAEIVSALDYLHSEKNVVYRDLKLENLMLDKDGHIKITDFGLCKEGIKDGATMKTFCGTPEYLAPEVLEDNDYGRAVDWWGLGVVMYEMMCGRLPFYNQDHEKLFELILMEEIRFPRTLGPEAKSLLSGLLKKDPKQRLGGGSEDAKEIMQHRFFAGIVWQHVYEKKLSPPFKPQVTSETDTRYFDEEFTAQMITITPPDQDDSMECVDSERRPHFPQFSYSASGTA
# HeLa [6] = test: Cell cycle arrest in human HeLa cells assessed as accumulation at sub-G1 phase at 200 nM after 24 hrs by propidium iodide staining based flow cytometry; assay type: functional
# HepG2 [7] = test: Cytotoxicity activity against human HepG2 cells after 48 hrs by MTT assay; assay type: functional, cell-based; conditions: HepG2, 48 h
# HeLa [8] = test: Induction of morphological changes in human HeLa cells assessed as protrusions in cell membrane at 200 to 500 nM after 24 hrs by scanning electron microscopic analysis; assay type: functional, cell-based
# HeLa [9] = test: Induction of morphological changes in human HeLa cells assessed as impaired cell adhesion at 200 to 500 nM after 24 hrs by bright field microscopic analysis; assay type: functional, cell-based
# HeLa [10] = test: Induction of apoptosis in human HeLa cells assessed as cleaved caspase-7 expression at 50 to 200 nM after 24 hrs by Western blot analysis; assay type: functional, cell-based
# HeLa [11] = test: Induction of apoptosis in human HeLa cells assessed as necrotic cells at 100 nM after 24 hrs by Annexin-V-FITC/propidium iodide staining based flow cytometry (reference value: 0.031%); assay type: functional
# HeLa [12] = test: Antiinvasive activity in human HeLa cells at 50 nM after 48 hrs by crystal violet staining based microscopic analysis; assay type: functional, cell-based
# HeLa [13] = test: Induction of apoptosis in human HeLa cells assessed as early apoptotic cells at 100 nM after 24 hrs by Annexin-V-FITC/propidium iodide staining based flow cytometry (reference value: 3.08%); assay type: functional
# HeLa [14] = test: Induction of apoptosis in human HeLa cells assessed as cleaved caspase-9 expression at 50 to 200 nM after 24 hrs by Western blot analysis; assay type: functional, cell-based
# HeLa [15] = test: Cell cycle arrest in human HeLa cells assessed as accumulation at S phase at 100 nM after 24 hrs by propidium iodide staining based flow cytometry; assay type: functional
# HeLa [16] = test: Inhibition of colony formation in human HeLa cells assessed as reduction in colony size at 50 nM after 24 hrs by crystal violet staining based microscopic analysis; assay type: functional, cell-based
# HeLa [17] = test: Induction of morphological changes in human HeLa cells assessed as formation of apoptotic bodies at 200 to 500 nM after 24 hrs by scanning electron microscopic analysis; assay type: functional, cell-based
# HeLa [18] = test: Down regulation of survivin expression in human HeLa cells at 50 to 200 nM after 24 hrs by Western blot analysis; assay type: functional, cell-based
# HeLa [19] = test: Cytotoxicity activity against human HeLa cells after 24 hrs by MTT assay; assay type: functional, cell-based
# HeLa [20] = test: Induction of morphological changes in human HeLa cells assessed as increase in floating round cells at 200 to 500 nM after 24 hrs by bright field microscopic analysis; assay type: functional, cell-based
# HepG2 [21] = test: Cytotoxicity activity against human HepG2 cells after 24 hrs by MTT assay; assay type: functional, cell-based; conditions: HepG2, 24 h
# HeLa [22] = test: Induction of apoptosis in human HeLa cells assessed as late apoptotic cells at 500 nM after 24 hrs by Annexin-V-FITC/propidium iodide staining based flow cytometry (reference value: 11.1%); assay type: functional
# L02 = test: Cytotoxicity activity against human LO2 cells after 24 to 48 hrs by MTT assay; assay type: cell-based
# HeLa [23] = test: Induction of double strand breaks in human HeLa cells assessed as increase in phospho-gammaH2AX expression at 50 to 200 nM after 24 hrs by Western blot analysis; assay type: functional, cell-based
# [24] = target: Ribosomal protein S6 kinase (Homo sapiens) (UniProt P51812+Q9UBS0+O75676+Q15349+O75582+P23443+Q9UK32+Q15418); test: Inhibition of p70S6K phosphorylation in human HeLa cells after 24 hrs by Western blot analysis; assay type: cell-based
# HeLa [25] = test: Induction of apoptosis in human HeLa cells assessed as necrotic cells at 500 nM after 24 hrs by Annexin-V-FITC/propidium iodide staining based flow cytometry (reference value: 0.031%); assay type: functional
# HeLa [26] = test: Induction of morphological changes in human HeLa cells assessed as cell shrinkage at 200 to 500 nM after 24 hrs by bright field microscopic analysis; assay type: functional, cell-based
# [27] = target: Mitogen-activated protein kinase; ERK1/ERK2 (Homo sapiens) (UniProt P27361+P28482); test: Inhibition of ERK1/2 phosphorylation in human HeLa cells at 50 to 200 nM after 24 hrs by Western blot analysis; assay type: cell-based
# Sequence of Mitogen-activated protein kinase; ERK1/ERK2 (Homo sapiens) (P27361 whole entry, looked up): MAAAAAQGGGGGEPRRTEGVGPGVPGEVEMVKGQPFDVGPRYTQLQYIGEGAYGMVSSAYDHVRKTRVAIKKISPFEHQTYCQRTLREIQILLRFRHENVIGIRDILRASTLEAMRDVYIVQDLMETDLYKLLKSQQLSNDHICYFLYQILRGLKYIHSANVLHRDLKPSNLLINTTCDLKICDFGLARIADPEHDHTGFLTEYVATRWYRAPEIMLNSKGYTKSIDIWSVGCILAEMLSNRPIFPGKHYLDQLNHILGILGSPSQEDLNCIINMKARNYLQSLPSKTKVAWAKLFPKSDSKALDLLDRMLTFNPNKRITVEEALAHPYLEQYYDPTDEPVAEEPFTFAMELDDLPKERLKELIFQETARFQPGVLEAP
# Sequence of Mitogen-activated protein kinase; ERK1/ERK2 (Homo sapiens) (P28482 whole entry, looked up): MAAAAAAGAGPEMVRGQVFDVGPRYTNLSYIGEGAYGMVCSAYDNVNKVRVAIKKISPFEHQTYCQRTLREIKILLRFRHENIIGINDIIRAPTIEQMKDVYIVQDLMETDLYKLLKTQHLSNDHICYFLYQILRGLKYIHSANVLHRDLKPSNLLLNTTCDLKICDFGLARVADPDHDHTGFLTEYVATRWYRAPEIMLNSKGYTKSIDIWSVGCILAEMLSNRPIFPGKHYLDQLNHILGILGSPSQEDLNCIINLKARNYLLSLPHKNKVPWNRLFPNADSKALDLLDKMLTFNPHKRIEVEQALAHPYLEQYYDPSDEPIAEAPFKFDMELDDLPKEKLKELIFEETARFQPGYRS
# HeLa [28] = test: Induction of apoptosis in human HeLa cells assessed as cleaved caspase-3 expression at 50 to 200 nM after 24 hrs by Western blot analysis; assay type: functional, cell-based
# HeLa [29] = test: Induction of morphological changes in human HeLa cells assessed as thinner microvilli at 200 to 500 nM after 24 hrs by scanning electron microscopic analysis; assay type: functional, cell-based
# HeLa [30] = test: Induction of apoptosis in human HeLa cells assessed as […] in cleaved PARP expression at 50 to 200 nM after 24 hrs by Western blot analysis; assay type: functional, cell-based
# HeLa [31] = test: Antimigratory activity in human HeLa cells at 25 to 50 nM after 24 to 48 hrs by wound healing assay; assay type: functional, cell-based
# HeLa [32] = test: Induction of apoptosis in human HeLa cells assessed as viable cells at 500 nM after 24 hrs by Annexin-V-FITC/propidium iodide staining based flow cytometry (reference value: 85.8%); assay type: functional; conditions: read-out: Activity
# [33] = target: Serine/threonine-protein kinase mTOR (Homo sapiens) (UniProt P42345); test: Inhibition of mTOR phosphorylation in human HeLa cells after 24 hrs by Western blot analysis; assay type: cell-based
# HeLa [34] = test: Inhibition of PI3K phosphorylation in human HeLa cells after 24 hrs by Western blot analysis; assay type: cell-based
# HeLa [35] = test: Induction of morphological changes in human HeLa cells assessed as cell shrinkage at 200 to 500 nM after 24 hrs by scanning electron microscopic analysis; assay type: functional, cell-based
# HeLa [36] = test: Down regulation of Bcl2 expression in human HeLa cells at 50 to 200 nM after 24 hrs by Western blot analysis; assay type: functional, cell-based
# HeLa [37] = test: Induction of apoptosis in human HeLa cells assessed as late apoptotic cells at 100 nM after 24 hrs by Annexin-V-FITC/propidium iodide staining based flow cytometry (reference value: 11.1%); assay type: functional
# HeLa [38] = test: Induction of apoptosis in human HeLa cells assessed as viable cells at 200 nM after 24 hrs by Annexin-V-FITC/propidium iodide staining based flow cytometry (reference value: 85.8%); assay type: functional; conditions: read-out: Activity
# HeLa [39] = test: Induction of morphological changes in human HeLa cells assessed as chromatin condensation at 200 to 500 nM after 24 hrs by Hoechst 33342 staining based fluorescence microscopic analysis; assay type: functional, cell-based
# HeLa [40] = test: Induction of apoptosis in human HeLa cells assessed as necrotic cells at 200 nM after 24 hrs by Annexin-V-FITC/propidium iodide staining based flow cytometry (reference value: 0.031%); assay type: functional
# HeLa [41] = test: Induction of morphological changes in human HeLa cells assessed as DNA fragmentation at 200 to 500 nM after 24 hrs by Hoechst 33342 staining based fluorescence microscopic analysis; assay type: functional, cell-based
# HeLa [42] = test: Induction of morphological changes in human HeLa cells assessed as wizened nucleus at 200 to 500 nM after 24 hrs by Hoechst 33342 staining based fluorescence microscopic analysis; assay type: functional, cell-based
# HeLa [43] = test: Inhibition of colony formation in human HeLa cells at 50 nM after 24 hrs by crystal violet staining based microscopic analysis; assay type: functional, cell-based
# HeLa [44] = test: Antiproliferative activity against human HeLa cells assessed as inhibition of cell proliferation at 100 to 200 nM after 24 hrs by Edu/Hoechst 33342 staining based fluorescence microscopic analysis; assay type: functional
# HeLa [45] = test: Cell cycle arrest in human HeLa cells assessed as accumulation at S phase at 200 nM after 24 hrs by propidium iodide staining based flow cytometry relative to control; assay type: functional
# HeLa [46] = test: Cytotoxicity activity against human HeLa cells after 48 hrs by MTT assay; assay type: functional, cell-based
# HeLa [47] = test: Antiproliferative activity against human HeLa cells assessed as inhibition of cell proliferation at 100 to 200 nM after 24 hrs by Ki-67/Hoechst 33342 staining based fluorescence microscopic analysis; assay type: functional
# [48] = target: c-Jun N-terminal kinase, JNK (Homo sapiens) (UniProt P45983+P53779+P45984); test: Activation of JNK phosphorylation in human HeLa cells after 24 hrs by Western blot analysis; assay type: cell-based
# HeLa [49] = test: Down regulation of FEN1 expression in human HeLa cells at 50 to 200 nM after 24 hrs by Western blot analysis; assay type: functional, cell-based
# MCF7 [50] = test: Cytotoxicity activity against human MCF7 cells after 24 hrs by MTT assay; assay type: functional, cell-based; conditions: MCF7, 24 h
# HeLa [51] = test: Induction of apoptosis in human HeLa cells assessed as early apoptotic cells at 500 nM after 24 hrs by Annexin-V-FITC/propidium iodide staining based flow cytometry (reference value: 3.08%); assay type: functional
# MCF7 [52] = test: Cytotoxicity activity against human MCF7 cells after 48 hrs by MTT assay; assay type: functional, cell-based; conditions: MCF7, 48 h
# [53] = target: MAP kinase p38 (Homo sapiens) (UniProt O15264+Q15759+Q16539+P53778); test: Effect on p38 phosphorylation in human HeLa cells at 50 to 200 nM after 24 hrs by Western blot analysis; assay type: cell-based
smiles,measurement,setting,value
C[C@]12CC[C@H](O[C@@H]3C[C@H](CO)[C@@H](O)[C@H](O)[C@H]3O)C[C@@H]1CC[C@@H]1[C@@H]2CC[C@]2(C)[C@@H](c3ccc(=O)oc3)[C@@H](O)C[C@]12O,Activity,HeLa [1],8.67%
same,Activity,HeLa [2],38.3%
same,Activity,HeLa [3],Active
same,viability at 0.1 µM,HeLa [4],82.5%
same,inhibition,[5],Dose-dependent effect
same,Activity,HeLa [6],Active
same,IC50,HepG2 [7],221 nM
same,Activity,HeLa [8],Active
same,Activity,HeLa [9],Active
same,Activity,HeLa [10],Active
same,Activity,HeLa [11],0.062%
same,Activity,HeLa [12],Active
same,Activity,HeLa [13],10.2%
same,Activity,HeLa [14],Active
same,Activity,HeLa [15],Active
same,inhibition,HeLa [16],Active
same,Activity,HeLa [17],Active
same,Activity,HeLa [18],Active
same,IC50,HeLa [19],546 nM
same,Activity,HeLa [20],Active
same,IC50,HepG2 [21],1410 nM
same,Activity,HeLa [22],16.6%
same,Activity,L02,Non-Toxic
same,Activity,HeLa [23],Active
same,inhibition,[24],Dose-dependent effect
same,Activity,HeLa [25],0.56%
same,Activity,HeLa [26],Active
same,inhibition,[27],Active
same,Activity,HeLa [28],Active
same,Activity,HeLa [29],Active
same,Activity,HeLa [30],Active
same,Activity,HeLa [31],Active
same,viability at 0.5 µM,HeLa [32],46.9%
same,inhibition,[33],Dose-dependent effect
same,inhibition,HeLa [34],Dose-dependent effect
same,Activity,HeLa [35],Active
same,Activity,HeLa [36],Active
same,Activity,HeLa [37],7.28%
same,viability at 0.2 µM,HeLa [38],52.9%
same,Activity,HeLa [39],Active
same,Activity,HeLa [40],0.1%
same,Activity,HeLa [41],Active
same,Activity,HeLa [42],Active
same,inhibition,HeLa [43],Active
same,inhibition,HeLa [44],Active
same,Activity,HeLa [45],73%
same,IC50,HeLa [46],158 nM
same,inhibition,HeLa [47],Active
same,Activity,[48],Active
same,Activity,HeLa [49],Active
same,IC50,MCF7 [50],1020 nM
same,Activity,HeLa [51],36%
same,IC50,MCF7 [52],239 nM
same,Activity,[53],inactive
C[C@]12CC[C@H](O)C[C@H]1CC[C@@H]1[C@@H]2CC[C@]2(C)[C@@H](c3ccc(=O)oc3)CC[C@]12O [BUFALIN],Activity,HeLa [1],13.9%
same,Activity,HeLa [2],30.9%
same,IC50,HeLa [19],594 nM
same,viability at 0.2 µM,HeLa [38],53.3%
same,Activity,HeLa [40],1.86%
same,IC50,HeLa [46],280 nM
